These results are taken from US4581354A, “3-arylcarbonyl- and 3-cycloalkylcarbonyl-1-aminoalkyl-1H-indoles, compositions and use” (Sterling Drug Inc., priority 1985, dated 1986).

One may read the ED50 as the midpoint of the dose-response relation.

The test system of the assay is acetylcholine-induced abdominal constriction. Kind of assay: animal or person. As to conditions: for ED50: read-out: Ach ED50; for inhibition in vivo at 3 mg/kg: 3 mg./kg. i.v.; for inhibition in vivo at 100 mg/kg: 100 mg./kg. oral; for inhibition in vivo at 1000 mg/kg: 1000 mg./kg. oral; for inhibition in vivo at 300 mg/kg: 300 mg./kg. oral; for inhibition in vivo at 30 mg/kg: 30 mg./kg. oral; for inhibition in vivo at 550 mg/kg: 550 mg./kg. oral. The class given is in vivo, mice. The source says:
The test procedures used to determine the analgesic activities of the compounds have been described in detail in the prior art and are as follows: The acetylcholine-induced abdominal constriction test, which is a primary analgesic screening test designed to measure the ability of a test agent to suppress acetylcholine-induced abdominal constriction in mice, described by Collier et al., Brit. J. Pharmacol. Chemotherap. 32, 295 (1968); a modification of the anti-bradykinin test, which is also a primary analgesic screening procedure, described by Berkowitz et al., J. Pharmacol. Exptl. Therap. 177, 500-508 (1971), Blane et al., J. Pharm. Pharmacol. 19, 367-373 (1967), Botha et al., Eur. J. Pharmacol. 6, 312-321 (1969) and Deffenu et al., J. Pharm. Pharmacol. 18, 135 (1966); and the rat paw flexion test, described by Kuzuna et al., Chem. Pharm. Bull., 23, 1184-1191 (1975), Winter et al., J. Pharm. Exptl. Therap., 211, 678-685 (1979) and Capetola et al., J. Pharm. Exptl. Therap. 214, 16-23 (1980).
Unless noted otherwise, all data were obtained on oral administration and are expressed either as the ED50 or as the percent inhibition at a given dose level (thus 30/100 or 30% inhibition at […].)
In some instances, the compounds were retested two or more times, and ED50 values were calculated for each series of repeat tests. In such instances, each of the ED50 values so-obtained is given in a series of values, thus 6, 28, 30, 43 in the case of the species of Example 1AW in the acetylcholine-induced abdominal constriction test.

The mark [1] stands for this setting: Mus musculus, iv, read-out: Ach percent inhibition.
Setting [2] is: Mus musculus, po, read-out: Ach percent inhibition.

Read-outs that look alike come from different tables or passages of the source.

With `COc1ccc(C(=O)c2c(C)n(CCCN3CCOCC3)c3ccc(F)cc23)cc1.Cl` [Example 1I, 5-fluoro-2-methyl-3-(4-methoxybenzoyl)-1-[3-(4-morpholinyl)propyl]-1H-indole hydrochloride], the ED50 runs as follows: (Mus musculus, iv) 8.5 mg/kg; (Mus musculus, po) 75 mg/kg.

For `COc1ccc(C(=O)c2c(C)n(CCN3CCOCC3)c3ccccc23)cc1` [Example 1J], the “Ach ED50” value is, setting by setting: (i.v.) 6.7 mg/kg; (oral) 86 mg/kg.

`COc1ccc(C(=O)c2c(C)n(CCN3CCCC3)c3ccccc23)cc1` [Example 1K]: the inhibition in vivo at 3 mg/kg under setting [1] amounted to 30%. Further, under “Mus musculus, iv, 5.5 mg./kg. i.v., read-out: Ach percent inhibition”, the inhibition in vivo at 5.5 mg/kg stood at 25%. The inhibition in vivo at 10 mg/kg (Mus musculus, iv, 10 mg./kg. i.v., read-out: Ach percent inhibition) turned out to be 44%. Besides, the ED50 (Mus musculus, po) worked out at 255 mg/kg.

In the case of `COc1ccc(C(=O)c2c(C)n(CCN3CCOCC3)c3c(F)cccc23)cc1` [Example 1M], the inhibition in vivo at 100 mg/kg under setting [2] worked out at 50%.

With `COc1ccc(C(=O)c2c(C)n(CCN3CCOCC3)c3c(OC)cccc23)cc1` [Example 1N], for the setting “Mus musculus, po”, the ED50 is 35.8 mg/kg.

Regarding `Cc1c(C(=O)c2ccc(F)cc2)c2ccccc2n1CCN1CCOCC1` [Example 1Q, 3-(4-fluorobenzoyl)-2-methyl-1-[2-(4-morpholinyl)ethyl]-1H-indole], the inhibition in vivo at 24 mg/kg (Mus musculus, po, 24 mg./kg. oral, read-out: Ach percent inhibition) was found to be 7%. Besides, the inhibition in vivo at 79 mg/kg (Mus musculus, po, 79 mg./kg. oral, read-out: Ach percent inhibition) worked out at 27%. Besides, under “Mus musculus, po, 238 mg./kg. oral, read-out: Ach percent inhibition”, the inhibition in vivo at 238 mg/kg came out at 60%. Moreover, the inhibition in vivo at 435 mg/kg (Mus musculus, po, 435 mg./kg. oral, read-out: Ach percent inhibition) stood at 67%. Further, the inhibition in vivo at 793 mg/kg (Mus musculus, po, 793 mg./kg. oral, read-out: Ach percent inhibition) stood at 60%. Also, the inhibition in vivo at 1000 mg/kg under setting [2] worked out at 67%.

`Cc1c(C(=O)c2ccc3c(c2)OCO3)c2ccccc2n1CCN1CCOCC1` [Example 1R]: the ED50 (Mus musculus, po) amounted to 198 mg/kg.

For `Cc1c(C(=O)c2csc3ccccc23)c2ccccc2n1CCN1CCOCC1` [Example 1T], the median effective dose (ED50) runs as follows: (Mus musculus, iv) 3.8 mg/kg; (Mus musculus, po) 106 mg/kg.

`COc1ccccc1C(=O)c1c(C)n(CCN2CCOCC2)c2ccccc12` [Example 1U, 2-methyl-3-(2-methoxybenzoyl)-1-[2-(4-morpholinyl)ethyl]-1H-indole]: where the note is “Mus musculus, po”, the ED50 was determined as 155 mg/kg.

With `COc1ccc(C(=O)c2c(C)n(CCN3CCOCC3)c3ccccc23)cc1F` [Example 1V], under setting [2], the inhibition in vivo at 300 mg/kg was found to be 20%.

Consider `Cc1c(C(=O)c2ccc3ccccc3c2)c2ccccc2n1CCN1CCOCC1` [Example 1W], for which the inhibition in vivo at 1 mg/kg (Mus musculus, iv, 1 mg./kg. i.v., read-out: Ach percent inhibition) is 10%. Besides, the inhibition in vivo at 1.73 mg/kg (Mus musculus, iv, 1.73 mg./kg. i.v., read-out: Ach percent inhibition) amounted to 0%. The inhibition in vivo at 3 mg/kg under setting [1] is 86%. Moreover, under setting [2], the inhibition in vivo at 30 mg/kg was 0%, the inhibition in vivo at 300 mg/kg came to 40% and the inhibition in vivo at 550 mg/kg was determined as 47%.

For the molecule `COc1ccc(C(=O)c2cn(CCN3CCOCC3)c3ccc(C)cc23)cc1` [Example 1X], the inhibition in vivo at 300 mg/kg under setting [2] stood at 7%.

For the molecule `Cc1c(C(=O)c2cccc(F)c2)c2ccccc2n1CCN1CCOCC1` [Example 1Y], the inhibition in vivo at 100 mg/kg under setting [2] was 30%.

In the case of `Cc1c(C(=O)c2ccccc2F)c2ccccc2n1CCN1CCOCC1` [Example 1Z, 3-(2-fluorobenzoyl)-2-methyl-1-[2-(4-morpholinyl)-ethyl]-1H-indole], the ED50 (Mus musculus, po) stood at 68 mg/kg.

Regarding `Cc1c(C(=O)c2ccc(S(C)(=O)=O)cc2)c2ccccc2n1CCN1CCOCC1` [Example 2-O], the inhibition in vivo at 100 mg/kg under setting [2] came to 20%.

As for `Cc1ccc(C(=O)c2cn(C(C)CN3CCOCC3)c3ccccc23)cc1` (centres unmarked) [Example 2A, 3-(4-methylbenzoyl)-1-[1-methyl-2-(4-morpholinyl)ethyl]-1H-indole], under setting [2], the inhibition in vivo at 30 mg/kg was found to be 7%, the inhibition in vivo at 300 mg/kg amounted to 60%, the inhibition in vivo at 550 mg/kg was determined as 73% and the inhibition in vivo at 1000 mg/kg stood at 67%.

As to `COc1ccc(C(=O)c2c(Cl)n(CCN3CCOCC3)c3ccccc23)cc1` [Example 2AB], the ED50 (Mus musculus, po) was 91 mg/kg.

Consider `CCCc1ccc(C(=O)c2c(C)n(CCN3CCOCC3)c3ccccc23)cc1` [Example 2AC], for which the inhibition in vivo at 100 mg/kg under setting [2] is 30%.

Consider `Cc1ccccc1C(=O)c1c(C)n(CCCN2CCOCC2)c2ccc(F)cc12` [Example 2AD], for which, under setting [2], the inhibition in vivo at 100 mg/kg stood at 10%.

As to `Cc1c(C(=O)c2ccc(F)cc2)c2cc(F)ccc2n1CCCN1CCOCC1` [Example 2AE], under setting [2], the inhibition in vivo at 100 mg/kg was 20%.

Regarding `Cc1c(C(=O)c2ccoc2)c2cc(F)ccc2n1CCCN1CCOCC1` [Example 2AF], the inhibition in vivo at 100 mg/kg under setting [2] amounted to 30%.

Consider `Cc1c(C(=O)C=Cc2ccccc2)c2cc(F)ccc2n1CCCN1CCOCC1` [Example 2AG], for which the ED50 (Mus musculus, po) is 143 mg/kg.

As to `Cc1c(C(=O)c2ccc(F)cc2F)c2cc(F)ccc2n1CCN1CCOCC1` [Example 2AH], the inhibition in vivo at 100 mg/kg under setting [2] was 20%.

`Cc1c(C(=O)c2cccc3ccccc23)c2ccccc2n1C(C)CN1CCOCC1` (centres unmarked) [Example 2AK]: for the setting “Mus musculus, iv, 0.3 mg./kg. i.v., read-out: Ach percent inhibition”, the inhibition in vivo at 0.3 mg/kg was determined as 30%.

On to `O=C(c1cccc2ccccc12)c1cn(CCN2CCOCC2)c2ccccc12` [Example 2AL], for which the inhibition in vivo at 0.1 mg/kg (Mus musculus, iv, 0.1 mg./kg. i.v., read-out: Ach percent inhibition) was found to be 20%.

Consider `Cc1c(C(=O)c2ccc3occc3c2)c2ccccc2n1CCN1CCOCC1` [Example 2AM], for which the inhibition in vivo at 100 mg/kg under setting [2] turned out to be 80%.

With `Cc1c(C(=O)c2ccc(F)cc2F)c2ccccc2n1CCN1CCOCC1` [Example 2AN], the ED50 (Mus musculus, po) amounted to 90 mg/kg.

For the molecule `Cc1c(C(=O)c2ccc(F)cc2F)c2cc(F)ccc2n1CCCN1CCOCC1` [Example 2AO], under setting [2], the inhibition in vivo at 100 mg/kg was found to be 40%.

As to `COc1ccc(C(=O)c2c(C)n(CCN3CCOCC3)c3ccccc23)c(F)c1` [Example 2AP], the ED50 (Mus musculus, po) was determined as 27 mg/kg.

`Cc1c(C(=O)c2ccc(Br)cc2)c2cc(F)ccc2n1CCCN1CCOCC1` [Example 2AR]: under setting [2], the inhibition in vivo at 100 mg/kg was found to be 50%.

As to `Cc1cccc(C(=O)c2c(C)n(CCN3CCOCC3)c3ccccc23)c1C` [Example 2AT], the inhibition in vivo at 100 mg/kg under setting [2] stood at 20%.

Regarding `Cc1c(C(=O)c2cc(Cl)cc(Cl)c2)c2ccccc2n1CCN1CCOCC1` [Example 2AU], the inhibition in vivo at 100 mg/kg under setting [2] is 30%.

As for `Cc1cc(C)cc(C(=O)c2c(C)n(CCN3CCOCC3)c3ccccc23)c1` [Example 2AV], under setting [2], the inhibition in vivo at 100 mg/kg came out at 10%.

For the molecule `Cc1cccc(C(=O)c2c(C)n(CCN3CCOCC3)c3ccccc23)c1` [Example 2AW], under setting [2], the inhibition in vivo at 100 mg/kg amounted to 20%.

For `Cc1c(C(=O)c2cccc(Cl)c2)c2ccccc2n1CCN1CCOCC1` [Example 2AX], the inhibition in vivo at 100 mg/kg under setting [2] is 0%.

In the case of `Cc1c(C(=O)c2ccccc2Cl)c2ccccc2n1C(C)CN1CCOCC1` (centres unmarked) [Example 2AZ], the ED50 (Mus musculus, po) worked out at 26 mg/kg.

In the case of `Cc1c(C(=O)c2ccccc2F)c2cc(F)ccc2n1CCCN1CCOCC1` [Example 2BB, 5-fluoro-3-(2-fluorobenzoyl)-2-methyl-1-[3-(4-morpholinyl)propyl]-1H-indole], the inhibition in vivo at 100 mg/kg under setting [2] was determined as 40%.

`Cc1c(C(=O)c2ccoc2)c2ccccc2n1CCN1CCOCC1` [Example 2BC]: the inhibition in vivo at 100 mg/kg under setting [2] was found to be 10%.

For the molecule `Cc1c(C(=O)c2ccccc2F)c2cc(F)ccc2n1C(C)CN1CCOCC1` (centres unmarked) [Example 2BD], the ED50 (Mus musculus, po) came to 15 mg/kg.

With `Cc1c(C(=O)c2ccc(Br)cc2)c2ccccc2n1CCN1CCOCC1` [Example 2BE], the inhibition in vivo at 100 mg/kg under setting [2] worked out at 30%.

Consider `Cc1c(C(=O)c2ccc3[nH]cnc3c2)c2ccccc2n1CCN1CCOCC1` [Example 2BF], for which the inhibition in vivo at 100 mg/kg under setting [2] is 30%.

Take `Cc1ccc(C(=O)c2c(C)n(C(C)CN3CCOCC3)c3ccccc23)cc1` (centres unmarked) [Example 2B]: under setting [2], the inhibition in vivo at 300 mg/kg came to 47% and the inhibition in vivo at 550 mg/kg was determined as 33%.
